Test results: patent US7173018B2, “Phospholipid derivatives of non-steroidal anti-inflammatory drugs” (D-Pharm, Ltd., priority 1998, dated 2007)

Tests used:
[1] = system: Carrageenan-induced rat paw edema; experiment: Carrageenan-induced rat paw edema (anti-inflammatory efficacy); assay type: in vivo; conditions: rats, 3, 5 and 7 hours post-carrageenan, p<0.05, FIG. 3
Procedure: Efficacy of DP-DFC lipid derivatives was tested in vivo in the model system of rodent carrageenan edema test.
Carrageenan-induced rat paw edema is a widely employed animal model for acute inflammation. The objective of the study is to assess the potential prophylactic effects of DP-DCF derivatives on the prevention of inflammatory swelling and, in particular, to compare the efficacy parameters with those obtained for diclofenac. The experimental set-up was as follows: Male Sprague-Dawley rats weighing 120–180 g (supplied by Harlan Laboratories Breeding Center, Israel) were intraperitoneally (i.p.) injected with drug or prodrug one hour prior to the induction of inflammation with carrageenan. Animals injected with vehicle alone served as control group.
Paw edema was induced by a single sub-plantar injection of 0.1 ml 2% carrageenan in physiological saline, into test animals' right hind paws. Just prior to paw edema induction, the paw thickness of the test animals' right hind paws was measured in triplicate using a plethysmograph and micrometer to provide a baseline. At 3, 5 and 7 hours post carrageenan injection, the right paw thickness was measured in the same manner as before.
Potential anti-inflammatory activity in suppressing carrageenan-induced paw oedema was assessed by the relative differences in paw volumes between pre- and post-carrageenan measurements, expressed as (%) change. […]

[2] = system: global forebrain ischemia; experiment: Global forebrain ischemia model, serum neuron specific enolase (NSE); assay type: in vivo, Mongolian gerbils; conditions: gerbils
Procedure: Neuroprotective effects of compounds of the invention were examined in the global forebrain ischemic model system in Mongolian gerbils.
Male Mongolian gerbils 60–70 g (Charles River Laboratories, USA) were used in this study. Global forebrain ischemia was induced by transient occlusion of both carotid arteries for 10 minutes, using arterial clips. The tested compounds were orally administered to the animals, 7–8 animals per group, by either one of two schemes: • a) single dose administration of commercial diclofenac (Sigma, USA; 10 mg/kg) or dose-equivalent of DP-DCF; Z=5 (30 mg/kg). The administration was per os (p.o.) two hours before induction of ischemia (FIG. 4); • b) multiple dosing of DP-DCF; Z=5 (30 mg/kg) orally administered daily for 5 days beginning four days prior to induction of ischemia. (FIG. 5).
In both schemes, animals treated with vehicle alone served as control groups. Blood samples were withdrawn from eye sinuses of the animals 24 hours after the onset of ischemia and serum levels of neuron specific enolase (NSE) were determined by radioimmunoassay using NSE kit (Pharmatope Ltd., Israel).
It has been shown that serum levels of NSE are elevated in the event of ischemic insult. Thus, serum level of NSE may serve as a marker for the degree of neuronal damage (Barone et al. (1993) Brain Res. 623: 77–82).

[3] = In vivo sub-chronic toxicity study: body weight changes; set-up: species or system rat; conditions: rats, 10 mg/kg p.o. gavage daily for 14 days; FIG. 1
Procedure: DP-DCF compounds were evaluated for sub-chronic toxicity during 14-day drug administration period by following two criteria: a) monitoring body weight changes, and b) evaluating gastro-toxicity scores.
Male Sprague-Dawley rats weighing 250–280 g were kept under standard conditions for an acclimatization period of one week with food and water supplied ad lib. The rats were administered with commercial diclofenac (DCF; Sigma, USA) or with equivalent doses of 1-Stearoyl-2-{4-[2-(2,6-dichloroanilino)-phenylacetamido]butanoyl}-sn-glycero-3-phosphocholine (DP-DCF; Z=3) or 1-Stearoyl-2-{6-[2-(2,6-dichloroanilino)-phenylacetamido]hexanoyl}-sn-glycero-3-phosphocholine (DP-DCF; Z=5), p.o. by gavage daily for 14 days. Animals treated with the vehicle solution alone serve as control group.
The treatment groups were as follows:
A major sign of general toxicity is decreasing of body weight. Male Sabra rats were treated as described above. The rats were weighed prior to dosing at the beginning of the experiment (day zero) and at the 5th, 9th and 13th day of the treatment.

[4] = In vivo sub-chronic toxicity study: gastro-toxicity scores; set-up: species or system rat; conditions: rats, 10 mg/kg p.o. daily, day 14; scores 0 (no visible lesions) to 5 (perforation); FIG. 2
Procedure: Male Sprague-Dawley rats weighing 250–280 g were kept under standard conditions for an acclimatization period of one week with food and water supplied ad lib. […] Animals treated with the vehicle solution alone serve as control group.
Toxicity scores were assessed at the end of the 14-day multiple p.o drug administration period. On day 14, the animals were anesthetized 4 hours after administration of the test materials by i.p. injection of 0.5 ml pentobarbitone sodium (200 mg/ml) and laparatomy was preformed to remove the rat's stomach with approximately 15 mm of the associated duodenum. The stomachs were cut open along the small curvature and washed, with gentle rubbing, under running water. A semi-quantitative assessment of the gastric damage was determined by assigning scores ranging from 0 to 5. The scores indicate as follows: (0) No macroscopically visible lesions; (1) Hyperemia; (2) One-two slight lesions; (3) More than 2 slight lesions; (4) Severe lesions; (5) Perforation.

Compound	Anti-inflammatory activity: suppression of carrageenan-induced increase of paw volume ([1]; 30 mg/kg i.p. one hour prior to carrageenan)	Serum NSE level 24 hours after ischemia ([2]; 30 mg/kg orally daily for 5 days beginning four days prior to ischemia, p<0.05, FIG. 5)	Serum NSE level 24 hours after ischemia ([2]; single dose 30 mg/kg p.o. two hours before ischemia, FIG. 4)	Body weight changes (%) [3]	Gastro-toxicity score [4]	Anti-inflammatory activity: suppression of carrageenan-induced increase of paw volume ([1]; 10 mg/kg i.p. one hour prior to carrageenan)
1-Stearoyl-2-{6-[2-(2,6-dichloroanilino)phenylacetamido]hexanoy}-sn-glycero-3-phosphocholine [DCF n=5]	statistically significant and consistent anti-inflammatory activity	significant reduction in NSE level	reduced in comparison to NSE level in serum of animals that were treated with DCF or vehicle alone			
O=C(O)Cc1ccccc1Nc1c(Cl)cccc1Cl [DCF, [o-(2,6-dichloroanilino)phenyl]acetic acid]				maximal decrease of body weight on day 5	4	statistically significant and consistent anti-inflammatory activity
